Measured values taken from patent US20230150986A1, “ANTAGONISTS OF THE MUSCARINIC ACETYLCHOLINE RECEPTOR M4” (Vanderbilt University, priority 2019, published 2023).
Where two headings read alike, the source gives them in different places.

Experiments:
cytochrome P450 2D6 = molecular target: T1, cytochrome P450 2D6 (Homo sapiens, UniProt P10635); assay: Cytochrome P450 cocktail inhibition assay, 2D6 (dextromethorphan); type: in vitro ADME; conditions: human liver microsomes 0.1 mg/mL; read-out: CYP Inhibition (2D6)
T1 construct: human liver microsomes (HLM; 0.1 mg/mL); from tissue; host or cells: human liver microsomes
Procedure: (§1) Solutions of substrates for cytochrome P450 enzymes (1A2: Phenacetin, 10 μM; 2C9: Diclofenac, 5 μM; 2D6: Dextromethorphan, 5 μM; 3A4: Midazolam, 2 μM; as a mixture), test compound (VU6028418; multiple concentrations), and the positive control for pan-P450 inhibition (miconazole; multiple concentrations) were prepared. A reaction mixture of assay buffer (100 mM Kpi at pH 7.4), human liver microsomes (HLM; 0.1 mg/mL), and the substrate mixture were aliquoted into a 96-deepwell plate. The test compound and control were then added to the plate such that the final concentration of test compound ranged from 0.1-30 μM (two replicates per concentration). The assay plate was vortexed (briefly) and pre-incubated at 37° C. in an orbital shaker for 15 minutes. The reaction was initiated by addition of NADPH (1 mM, final concentration) and continued for 8 min before it was quenched by acetonitrile (2× volume) containing an LCMS internal standard (carbamazepine, 50 nM). The plate was then centrifuged (4000 rcf, 4° C., 10 min), and the resulting supernatant was diluted with water (1× volume) for LC-MS/MS. Assay samples were analyzed via electrospray ionization on an AB Sciex API-4000 (Foster City, Calif.) triple-quadrupole mass spectrometer coupled to Agilent Technologies 1290 Infinity series pumps (Santa Clara, Calif.), and a Leap Technologies CTC PAL auto -sampler (Carrboro, NC). Analytes were separated by gradient elution on a Phenomenex Kinetex (C18 2.1×50 mm 5 μm) column (Torrance, Calif.) thermostated at 40° C. The HPLC mobile phase A was 0.1% formic acid in water (pH unadjusted), and the mobile phase B was 0.1% formic acid in acetonitrile (pH unadjusted). […] The total run time was 2.5 min and the HPLC flow rate was 0.5 mL/min. The source temperature was set at 500° C. and mass spectral analyses were performed using multiple reaction monitoring (MRM) with mass transitions specific to each substrate's metabolite utilizing a Turbo-Ionspray® source in positive ionization mode (5.0 kV spray voltage). The test compound and control IC50 values for each enzyme were obtained by quantitating the inhibition of metabolite formation for each substrate. A 0 μM test compound (or control) conditions represented 100% enzymatic activity, and the effect of increasing test compound concentrations on enzymatic activity was then calculated from the % of control activity. Inhibition curves were fitted using XLfit 5.2.2 (four-parameter logistic model, equation 201) in order to calculate the concentration that produced half-maximal inhibition (IC50) of each enzyme.

cytochrome P450 3A4 = molecular target: T2, cytochrome P450 3A4 (Homo sapiens, UniProt P08684); assay: Cytochrome P450 cocktail inhibition assay, 3A4 (midazolam); type: in vitro ADME; conditions: human liver microsomes 0.1 mg/mL; read-out: CYP Inhibition (3A4)
T2 construct: human liver microsomes (HLM; 0.1 mg/mL); from tissue; host or cells: human liver microsomes
Procedure: as §1

P-gp = molecular target: T3, P-gp (Homo sapiens, UniProt P08183); assay: P-gp efflux in MDR1-MDCK cell monolayers; type: in vitro ADME; conditions: dog, pH 7.4, MDCK-MDR1, 5 μM
T3 construct: expressed in transfected cells; host or cells: MDR1-MDCK
Procedure: MDR1-MDCK cell monolayers were grown to confluence on collagen-coated, microporous membranes in 12-well assay plates. The permeability assay buffer was Hanks' balanced salt solution containing 10 mM HEPES and 15 mM glucose at a pH of 7.4. The buffer in the receiver chamber also contained 1% bovine serum albumin. The dosing solution concentration was 5 μM of test article in the assay buffer. Cell monolayers were dosed on the apical side (A- to -B) or basolateral side (B- to -A) and incubated at 37° C. with 5% CO2 in a humidified incubator. Samples were taken from the donor and receiver chambers at 120 minutes Each determination was performed in duplicate. The flux of lucifer yellow was also measured post-experimentally for each monolayer to ensure no damage was inflicted to the cell monolayers during the flux period. All samples were assayed by LC-MS/MS using electrospray ionization.

cytochrome P450 1A2 = molecular target: T4, cytochrome P450 1A2 (Homo sapiens, UniProt P05177); assay: Cytochrome P450 cocktail inhibition assay, 1A2 (phenacetin); type: in vitro ADME; conditions: human liver microsomes 0.1 mg/mL; read-out: CYP Inhibition (1A2)
T4 construct: human liver microsomes (HLM; 0.1 mg/mL); from tissue; host or cells: human liver microsomes
T4 sequence (P05177 1-516): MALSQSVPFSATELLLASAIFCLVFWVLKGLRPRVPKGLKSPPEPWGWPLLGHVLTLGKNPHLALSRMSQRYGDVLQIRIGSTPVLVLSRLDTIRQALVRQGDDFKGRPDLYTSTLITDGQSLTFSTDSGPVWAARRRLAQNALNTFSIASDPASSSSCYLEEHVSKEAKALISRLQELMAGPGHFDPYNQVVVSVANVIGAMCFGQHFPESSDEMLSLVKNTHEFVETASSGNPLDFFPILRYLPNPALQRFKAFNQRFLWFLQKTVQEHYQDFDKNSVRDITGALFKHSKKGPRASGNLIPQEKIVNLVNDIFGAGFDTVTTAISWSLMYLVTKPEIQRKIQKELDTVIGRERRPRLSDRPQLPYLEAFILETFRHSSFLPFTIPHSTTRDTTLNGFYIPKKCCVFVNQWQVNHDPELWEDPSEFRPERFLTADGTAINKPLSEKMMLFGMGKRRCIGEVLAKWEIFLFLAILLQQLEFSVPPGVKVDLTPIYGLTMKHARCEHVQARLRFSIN
Procedure: as §1

cytochrome P450 2C9 = molecular target: T5, cytochrome P450 2C9 (Homo sapiens, UniProt P11712); assay: Cytochrome P450 cocktail inhibition assay, 2C9 (diclofenac); type: in vitro ADME; conditions: human liver microsomes 0.1 mg/mL; read-out: CYP Inhibition (2C9)
T5 construct: human liver microsomes (HLM; 0.1 mg/mL); from tissue; host or cells: human liver microsomes
Procedure: as §1

mice = conditions: cited from earlier work
Human M4 = molecular target: T6, Human M4 (Homo sapiens, UniProt P08173); assay: mAChR M4 cell-based functional assay (calcium flux, decrease of EC80 acetylcholine response); conditions: for Human M4 Emin: % ACh maximum at 30 μM; for IC50: CHO-K1 cells with human M4 and Gqi5, EC80 acetylcholine
T6 construct: Human or rat M4 cDNA, along with the chimeric G protein Gq,5, were transfected into Chinese hamster ovary (CHO-K1) cells; expressed in transfected cells; host or cells: CHO-K1 (M4/Gqi5/CHO)
T6 sequence (P08173 1-479): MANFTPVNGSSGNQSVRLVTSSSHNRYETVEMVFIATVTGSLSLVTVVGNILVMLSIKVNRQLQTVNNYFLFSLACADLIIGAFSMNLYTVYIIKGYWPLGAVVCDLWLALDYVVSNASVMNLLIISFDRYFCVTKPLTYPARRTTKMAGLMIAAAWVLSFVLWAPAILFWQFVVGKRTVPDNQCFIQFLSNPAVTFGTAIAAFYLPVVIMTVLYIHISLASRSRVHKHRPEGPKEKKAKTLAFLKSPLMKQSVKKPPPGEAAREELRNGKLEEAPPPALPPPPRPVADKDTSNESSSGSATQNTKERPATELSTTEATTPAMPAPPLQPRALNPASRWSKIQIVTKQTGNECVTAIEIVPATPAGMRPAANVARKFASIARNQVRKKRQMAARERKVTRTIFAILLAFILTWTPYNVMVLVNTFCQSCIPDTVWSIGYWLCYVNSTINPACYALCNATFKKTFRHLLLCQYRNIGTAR
In short: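 CHO-K1 cells stably co-expressing M4 with chimeric Gqi5, loaded with Fluo-4 AM for 50 min at 37 °C; compounds added as 10-point 1:3 curves, then acetylcholine at EC20 (143 s) and EC80 (268 s). Calcium read by FDSS fluorescence ratio; IC50 from four-parameter fit of decrease in EC80 acetylcholine response.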

T5 sequence (P11712 whole entry): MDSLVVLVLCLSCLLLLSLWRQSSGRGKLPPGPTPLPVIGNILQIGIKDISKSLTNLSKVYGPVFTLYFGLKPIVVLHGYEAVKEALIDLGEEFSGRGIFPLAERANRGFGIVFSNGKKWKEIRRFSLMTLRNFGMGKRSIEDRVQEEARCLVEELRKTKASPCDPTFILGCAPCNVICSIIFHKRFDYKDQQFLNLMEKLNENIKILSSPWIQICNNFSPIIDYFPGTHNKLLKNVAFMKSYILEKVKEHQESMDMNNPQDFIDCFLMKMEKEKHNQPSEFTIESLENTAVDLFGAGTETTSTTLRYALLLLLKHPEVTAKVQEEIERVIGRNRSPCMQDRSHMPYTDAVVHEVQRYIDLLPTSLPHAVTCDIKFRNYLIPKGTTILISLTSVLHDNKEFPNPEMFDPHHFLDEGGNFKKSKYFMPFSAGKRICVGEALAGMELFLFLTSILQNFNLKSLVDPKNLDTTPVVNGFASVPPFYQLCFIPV
T1 sequence (P10635 whole entry): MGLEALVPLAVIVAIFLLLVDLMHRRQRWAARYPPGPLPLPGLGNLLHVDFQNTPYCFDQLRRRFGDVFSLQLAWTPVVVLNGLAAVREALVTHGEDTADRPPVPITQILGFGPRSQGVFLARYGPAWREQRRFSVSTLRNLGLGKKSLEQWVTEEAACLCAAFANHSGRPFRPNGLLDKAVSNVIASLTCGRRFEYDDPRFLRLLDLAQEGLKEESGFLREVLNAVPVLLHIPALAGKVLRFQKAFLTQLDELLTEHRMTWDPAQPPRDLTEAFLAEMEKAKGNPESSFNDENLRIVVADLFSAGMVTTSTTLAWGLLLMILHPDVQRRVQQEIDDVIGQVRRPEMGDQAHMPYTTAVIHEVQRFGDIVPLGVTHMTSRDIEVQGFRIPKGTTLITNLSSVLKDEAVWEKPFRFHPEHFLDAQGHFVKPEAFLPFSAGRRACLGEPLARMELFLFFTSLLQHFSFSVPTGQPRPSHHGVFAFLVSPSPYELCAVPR
T2 sequence (P08684 whole entry): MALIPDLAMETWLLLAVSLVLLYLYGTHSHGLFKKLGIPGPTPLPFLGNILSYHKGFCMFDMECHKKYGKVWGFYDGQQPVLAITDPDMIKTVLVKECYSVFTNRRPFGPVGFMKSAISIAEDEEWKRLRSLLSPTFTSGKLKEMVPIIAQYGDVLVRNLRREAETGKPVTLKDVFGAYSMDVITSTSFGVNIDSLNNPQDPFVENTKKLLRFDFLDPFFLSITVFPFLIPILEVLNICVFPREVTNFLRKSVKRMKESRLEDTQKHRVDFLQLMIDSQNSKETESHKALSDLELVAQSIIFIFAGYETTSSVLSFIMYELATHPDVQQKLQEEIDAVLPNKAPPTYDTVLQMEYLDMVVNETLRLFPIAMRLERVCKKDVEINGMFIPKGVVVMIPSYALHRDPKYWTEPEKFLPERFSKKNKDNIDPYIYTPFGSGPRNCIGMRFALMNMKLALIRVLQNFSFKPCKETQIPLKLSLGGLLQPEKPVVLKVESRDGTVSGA
T3 sequence (P08183 whole entry): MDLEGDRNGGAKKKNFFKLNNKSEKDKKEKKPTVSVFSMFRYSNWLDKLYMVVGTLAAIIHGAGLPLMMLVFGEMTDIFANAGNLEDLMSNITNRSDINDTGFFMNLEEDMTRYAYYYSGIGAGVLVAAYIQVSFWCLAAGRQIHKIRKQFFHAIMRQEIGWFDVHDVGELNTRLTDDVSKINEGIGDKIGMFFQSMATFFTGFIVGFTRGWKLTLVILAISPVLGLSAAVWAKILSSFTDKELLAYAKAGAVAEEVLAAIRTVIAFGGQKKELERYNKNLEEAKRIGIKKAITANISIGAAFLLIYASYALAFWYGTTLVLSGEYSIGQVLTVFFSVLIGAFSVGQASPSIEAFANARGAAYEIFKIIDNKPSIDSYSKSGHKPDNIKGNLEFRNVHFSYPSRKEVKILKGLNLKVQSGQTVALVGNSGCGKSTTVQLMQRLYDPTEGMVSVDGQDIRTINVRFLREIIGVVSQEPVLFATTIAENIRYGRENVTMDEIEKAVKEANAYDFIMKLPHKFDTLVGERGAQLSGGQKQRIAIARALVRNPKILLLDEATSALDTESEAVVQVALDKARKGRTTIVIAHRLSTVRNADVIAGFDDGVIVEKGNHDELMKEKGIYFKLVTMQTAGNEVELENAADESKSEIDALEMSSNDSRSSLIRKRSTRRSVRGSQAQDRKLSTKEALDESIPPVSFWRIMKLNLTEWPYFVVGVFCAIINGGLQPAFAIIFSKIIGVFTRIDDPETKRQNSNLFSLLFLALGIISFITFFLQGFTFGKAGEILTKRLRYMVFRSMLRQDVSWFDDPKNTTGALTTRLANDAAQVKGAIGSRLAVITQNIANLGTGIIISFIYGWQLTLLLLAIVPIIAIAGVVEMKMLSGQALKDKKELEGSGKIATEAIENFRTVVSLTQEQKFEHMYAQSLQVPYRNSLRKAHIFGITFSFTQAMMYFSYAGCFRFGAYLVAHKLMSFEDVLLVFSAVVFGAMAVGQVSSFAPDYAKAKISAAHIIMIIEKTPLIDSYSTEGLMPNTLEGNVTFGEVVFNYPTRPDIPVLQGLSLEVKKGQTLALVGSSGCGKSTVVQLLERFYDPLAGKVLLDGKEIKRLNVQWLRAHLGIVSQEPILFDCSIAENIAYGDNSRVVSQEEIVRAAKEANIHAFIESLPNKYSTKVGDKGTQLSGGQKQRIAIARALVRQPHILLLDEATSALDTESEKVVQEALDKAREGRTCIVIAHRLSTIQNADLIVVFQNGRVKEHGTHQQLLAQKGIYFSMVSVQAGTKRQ

Human M4 Emin (Human M4) [%] | IC50 (Human M4) [nM] | Compound | further results
 |  | Fc1ccc(Cl)c(-c2ccc(N[C@H]3C[C@@H]4CN(Cc5ccccn5)C[C@@H]4C3)nn2)c1 [reference compound] | IC50 (cytochrome P450 2D6): > 30000 nM; IC50 (cytochrome P450 3A4): 21700 nM; efflux ratio at 120 min, 5 μM (P-gp): 12.3; IC50 (cytochrome P450 1A2): > 30000 nM; IC50 (cytochrome P450 2C9): 10300 nM
 |  | Fc1ccc(Cl)c(-c2ccc(N[C@H]3C[C@@H]4CN(CC5CCOCC5)C[C@@H]4C3)nn2)c1 [reference compound] | IC50 (cytochrome P450 2D6): 5300 nM; IC50 (cytochrome P450 3A4): 970 nM; efflux ratio at 120 min, 5 μM (P-gp): 14; IC50 (cytochrome P450 1A2): 1100 nM; IC50 (cytochrome P450 2C9): 150 nM
 |  | CN1[C@@H]2C[C@@H](OC(=O)[C@H](CO)c3ccccc3)C[C@H]1[C@@H]1O[C@@H]12 [scopolamine] | effect on catalepsy induced by haloperidol (mice; M4 KO mice): ineffective; effect on catalepsy induced by haloperidol (mice; WT mice): completely reversed
4 | 79.2 | Fc1cc(F)c(F)c(-c2ccc(N[C@H]3C[C@@H]4CN(Cc5cccc(F)n5)C[C@@H]4C3)nn2)c1 [Compound 22, (3aR,5s,6aS)-2-((6-fluoropyridin-2-yl)methyl)-N-(6-(2,3,5-trifluorophenyl)pyridazin-3-yl)octahydrocyclopenta[c]pyrrol-5-amine] | 
3 | 4.4 | [2H]C1([2H])[C@H](Nc2ccc(-c3cc(F)cc(F)c3F)nn2)C([2H])([2H])[C@H]2CN(CC3CCOCC3)C[C@H]21 [Compound 70] | 
2 | 6.89 | [2H]C([2H])(N1C[C@H]2C[C@H](Nc3ccc(-c4cc(F)cc(F)c4F)nn3)C[C@H]2C1)C1(C)CCCCO1 (stereo partly drawn) [Compound 50, (3aR,5s,6aS)-2-((2-methyltetrahydro-2H-pyran-2-yl)methyl-d2)-N-(6-(2,3,5-trifluorophenyl)pyridazin-3-yl)octahydrocyclopenta[c]pyrrol-5-amine] | 
5 | 7.3 | CC(C)C(O)CN1C[C@H]2C[C@H](Nc3ccc(-c4cc(F)cc(F)c4F)nn3)C[C@H]2C1 (stereo partly drawn) [Compound 64, 3-methyl-1-((3aR,5s,6aS)-5-((6-(2,3,5-trifluorophenyl)pyridazin-3-yl)amino)hexahydrocyclopenta[c]pyrrol-2(1H)-yl)butan-2-ol] | 
2 | 31.3 | [2H]C([2H])([C@@H]1CCOC1)N1C[C@H]2C[C@H](Nc3ccc(-c4cc(F)cc(F)c4F)nn3)C[C@H]2C1 [Compound 44, (3aR,5s,6aS)-2-(((S)-tetrahydrofuran-3-yl)methyl-d2)-N-(6-(2,3,5-trifluorophenyl)pyridazin-3-yl)octahydrocyclopenta[c]pyrrol-5-amine] | 
4 | 66 | [2H]C([2H])(CC1COC1)N1C[C@H]2C[C@H](Nc3ccc(-c4cc(F)cc(F)c4F)nn3)C[C@H]2C1 [Compound 85, (3aR,5s,6aS)-2-(2-(oxetan-3-yl)ethyl-1,1-d2)-N-(6-(2,3,5-trifluorophenyl)pyridazin-3-yl)octahydrocyclopenta[c]pyrrol-5-amine] | 
17 | 1.2 | C[C@]12C[C@H](Nc3ccc(-c4cc(F)cc(F)c4F)nn3)C[C@H]1CN(CC1CCOCC1)C2 (racemic) [Compound 88, (3aR,5S,6aS)-3a-methyl-2-((tetrahydro-2H-pyran-4-yl)methyl)-N-(6-(2,3,5-trifluorophenyl)pyridazin-3-yl)octahydrocyclopenta[c]pyrrol-5-amine and (3aS,5R,6aR)-3a-methyl-2-((tetrahydro-2H-pyran-4-yl)methyl)-N-(6-(2,3,5-trifluorophenyl)pyridazin-3-yl)octahydrocyclopenta[c]pyrrol-5-amine] | 
3 | 3.9 | [2H]C([2H])(C1CCOCC1(F)F)N1C[C@H]2C[C@H](Nc3ccc(-c4cc(F)cc(F)c4F)nn3)C[C@H]2C1 (stereo partly drawn) [Compound 93, (3aR,5s,6aS)-2-((3,3-difluorotetrahydro-2H-pyran-4-yl)methyl-d2)-N-(6-(2,3,5-trifluorophenyl)pyridazin-3-yl)octahydrocyclopenta[c]pyrrol-5-amine] | 
3 | 0.82 | Fc1cc(F)c(F)c(-c2ccc(N[C@H]3C[C@@H]4CN(CC5CCCOCC5)C[C@@H]4C3)nn2)c1 (stereo partly drawn) [Compound 73, (3aR,5s,6aS)-2-(oxepan-4-ylmethyl)-N-(6-(2,3,5-trifluorophenyl)pyridazin-3-yl)octahydrocyclopenta[c]pyrrol-5-amine] | 
2 | 184 | [2H]C([2H])(N1C[C@H]2C[C@H](Nc3ccc(-c4cc(F)cc(F)c4F)nn3)C[C@H]2C1)C1(OC)CCCOC1 (stereo partly drawn) [Compound 48, (3aR,5s,6aS)-2-((3-methoxytetrahydro-2H-pyran-3-yl)methyl-d2)-N-(6-(2,3,5-trifluorophenyl)pyridazin-3-yl)octahydrocyclopenta[c]pyrrol-5-amine] | 
3 | 57.5 | Fc1cc(F)c(F)c(-c2ccc(N[C@H]3C[C@@H]4CN(CC5CCCCC5)C[C@@H]4C3)nn2)c1 [Compound 3, (3aR,5s,6aS)-2-(cyclohexylmethyl)-N-(6-(2,3,5-trifluorophenyl)pyridazin-3-yl)octahydrocyclopenta[c]pyrrol-5-amine] | 
